{
  "source": "patent US20200054651A1",
  "about": "“COMPOSITIONS AND METHODS FOR MODULATING PPP2R1A” (The Regents of the University of California, priority 2017, published 2020)",
  "key": {"[1]": {"tested_on": "MCF 10A non-transformed mammary epithelial cells", "assay": "MCF 10A cell proliferation (toxicity to non-transformed cells)", "assay_type": "cell-based", "conditions": "48 h after treatment, Hoescht staining"}, "[2]": {"tested_on": "231MFP breast cancer cells", "assay": "Metabolomic profiling (SRM-based LC-MS/MS) in 231MFP cells", "assay_type": "cell-based", "conditions": "5 h", "protocol": "For polar metabolites, cell pellets were extracted in a mixture of acetonitrile/methanol/water (40:40:20), with inclusion of D3-15N-serine (10 nM) as an internal standard. Insoluble debris was separated via centrifugation at 13,000 rpm for 10 minutes. For nonpolar metabolites, metabolomes were extracted in 2:1 chloroform:methanol (3 ml) and PBS (1 ml) with inclusion of dodecylglycerol (10 nmol) and pentadecanoic acid (10 nmol) as internal standards. Organic and aqueous layers were separated by centrifugation at 1000×g for 5 minutes; the organic layer was collected, dried under a stream of nitrogen, and then dissolved in chloroform (120 μl). An aliquot of the nonpolar or polar extracts were then injected into an Agilent 6460 or 6430 QQQ-LC/MS/MS system. Separation of polar metabolites was achieved using normal-phase chromatography with a Luna NH2 column (5 mm) using a mobile phase (Buffer A: acetonitrile; Buffer B, 95:5 water/acetonitrile; with a modifier of 0.1% formic acid or 0.2% ammonium hydroxide) along with ammonium acetate (50 mM) for positive and negative ionization mode, respectively. The following gradient was used for each run: 0% B for 5 minutes (flow rate: 0.2 mL/min), 0% B to 100% B (linear) over 15 min (flow rate: 0.7 mL/min), then followed by an isocratic gradient of 100% B for 5 minutes (flow rate: 0.7 mL/min) and then 0% B for 5 minutes (flow rate of 0.7 mL/min). For nonpolar metabolites, metabolomes were separated using reverse-phase chromatography with a Luna C5 column (50 mm×4.6 mm with 5 μm diameter particles). Mobile phase A consisted of 95:5 ratio of water/methanol and mobile phase B consisted of 2-propanol, methanol, and water in a 60:35:5 ratio. Solvent modifiers of 0.1% formic acid, 5 mM ammonium formate, and 0.1% ammonium hydroxide were used to assist ion formation as well as to improve the LC resolution in both positive and negative ionization modes, respectively. The flow rate for each run started at 0.1 ml/min for 5 minutes to alleviate backpressure associated with injecting chloroform. The gradient started at 0% B and increased linearly to 100% B over the course of 45 min with a flow rate of 0.4 ml/min, followed by an isocratic gradient of 100% B for 17 minutes at 0.5 ml/min before equilibrating for 8 minutes at 0% B with a flow rate of 0.5 ml/min.\nMS analysis was performed with an electrospray ionization (ESI) source on an Agilent 6430 or 6460 QQQ LC-MS/MS system. The capillary voltage was set to 3.0 kV, and the fragmentor voltage was set to 100 V. The drying gas temperature was 350° C., the drying gas flow rate was 10 L/min, and the nebulizer pressure was 35 psi. […] Metabolite levels are expressed as relative abundances as compared to controls."}, "[3]": {"target": "T1, PP2A complex with wild-type PPP2R1A, PPP2R2A and PPP2CA (Homo sapiens, UniProt P30153)", "T1 construct": "PPP2CA protein TP301334) TP301334; host or cells: HEK293T", "assay": "In vitro PP2A activity assay (phosphate release from phosphopeptide)", "assay_type": "biochemical", "conditions": "30 min prior to assay", "protocol": "Wild-type mammalian expression plasmids with C-terminal FLAG tag were purchased from Origene (PPP2R1A: RC200056; PPP2R2A, MR207137). The PPP2R1A C337A mutant was generated with Agilent QuickChange Lightning site-directed mutagenesis kit according to manufacturer's instructions. […] Immediately prior to transfection, media was replaced with DMEM+5% FBS. Each plate was transfected with 20 μg of overexpression plasmid with 100 μg PEI (Sigma). After 48 hrs cells were collected in TBS, lysed by sonication, and batch bound with anti-DYKDDDDK (SEQ ID NO: 1) resin (GenScript) for 1 hr. Lysate and resin was loaded onto a gravity flow column and washed, followed by elution with 250 ng/uL 3×FLAG peptide (ApexBio A6001). Purity and concentration were verified by PAGE, UV/Spectroscopy, and BCA assay.\nActivity was assayed by addition of 60 μM Thr phosphopeptide (KRpTIRR, Millipore, 12-219) at 37° C. for 25 min, and free phosphate was detected colorimetrically by malachite green kit (Cayman 10009325) per manufacturer's instructions."}},
  "data": [
    {"smiles": "O=C(CCl)Nc1ccc2c(c1)OCCO2", "note": "[DKM 2-90, 2-Chloro-N-(2,3-dihydrobenzo[β][1,4]dioxin-6-yl)acetamide]", "values": [
      {"measurement": "toxicity to MCF 10A cells (cell proliferation)", "setting": "[1]", "result": "less toxic than DKM 2-91"},
      {"measurement": "ATP level", "setting": "[2]; 100 μM", "result": "Reductions"},
      {"measurement": "LPA (lysophosphatidic acid) level", "setting": "[2]; 100 μM", "result": "reductions"},
      {"measurement": "acetyl CoA level", "setting": "[2]; 100 μM", "result": "reduced"},
      {"measurement": "lactic acid level", "setting": "[2]; 100 μM", "result": "reduced"},
      {"measurement": "phosphoenolpyruvate level", "setting": "[2]; 100 μM", "result": "reduced"},
      {"measurement": "phosphoglycerate level", "setting": "[2]; 100 μM", "result": "reduced"}
    ]},
    {"smiles": "O=C(CCl)N(Cc1ccccc1)c1ccc2c(c1)OCCO2", "note": "[JNS 1-40, N-benzyl-2-chloro-N-(2,3-dihydrobenzo[b][1,4]dioxin-6-yl)acetamide]", "values": [
      {"measurement": "PP2A activity, wild-type PPP2R1A", "setting": "[3]; 100 μM", "result": "activated PP2A activity"}
    ]},
    {"smiles": "CC1=C(CO)C(=O)O[C@@H]([C@@H](C)[C@H]2CC[C@H]3[C@@H]4C[C@H]5O[C@]56[C@@H](O)C=CC(=O)[C@]6(C)[C@H]4CC[C@]23C)C1", "note": "[withaferin A, reference compound]", "values": [
      {"measurement": "PP2A activity, wild-type PPP2R1A", "setting": "[3]; 10 μM", "result": "activated PP2A activity"},
      {"measurement": "ATP level", "setting": "[2]; 10 μM", "result": "Reductions"},
      {"measurement": "LPA (lysophosphatidic acid) level", "setting": "[2]; 10 μM", "result": "reductions"},
      {"measurement": "acetyl CoA level", "setting": "[2]; 10 μM", "result": "reduced"},
      {"measurement": "lactic acid level", "setting": "[2]; 10 μM", "result": "reduced"},
      {"measurement": "phosphoenolpyruvate level", "setting": "[2]; 10 μM", "result": "reduced"},
      {"measurement": "phosphoglycerate level", "setting": "[2]; 10 μM", "result": "reduced"}
    ]}
  ]
}
